Target: T1, AhR (Homo sapiens, UniProt P35869)
T1 construct: Degradation of endogenous AhR was further confirmed via Western blotting and global proteomics measurements in cells treated with 12b; host or cells: MCF7
T1 sequence (P35869 11-848): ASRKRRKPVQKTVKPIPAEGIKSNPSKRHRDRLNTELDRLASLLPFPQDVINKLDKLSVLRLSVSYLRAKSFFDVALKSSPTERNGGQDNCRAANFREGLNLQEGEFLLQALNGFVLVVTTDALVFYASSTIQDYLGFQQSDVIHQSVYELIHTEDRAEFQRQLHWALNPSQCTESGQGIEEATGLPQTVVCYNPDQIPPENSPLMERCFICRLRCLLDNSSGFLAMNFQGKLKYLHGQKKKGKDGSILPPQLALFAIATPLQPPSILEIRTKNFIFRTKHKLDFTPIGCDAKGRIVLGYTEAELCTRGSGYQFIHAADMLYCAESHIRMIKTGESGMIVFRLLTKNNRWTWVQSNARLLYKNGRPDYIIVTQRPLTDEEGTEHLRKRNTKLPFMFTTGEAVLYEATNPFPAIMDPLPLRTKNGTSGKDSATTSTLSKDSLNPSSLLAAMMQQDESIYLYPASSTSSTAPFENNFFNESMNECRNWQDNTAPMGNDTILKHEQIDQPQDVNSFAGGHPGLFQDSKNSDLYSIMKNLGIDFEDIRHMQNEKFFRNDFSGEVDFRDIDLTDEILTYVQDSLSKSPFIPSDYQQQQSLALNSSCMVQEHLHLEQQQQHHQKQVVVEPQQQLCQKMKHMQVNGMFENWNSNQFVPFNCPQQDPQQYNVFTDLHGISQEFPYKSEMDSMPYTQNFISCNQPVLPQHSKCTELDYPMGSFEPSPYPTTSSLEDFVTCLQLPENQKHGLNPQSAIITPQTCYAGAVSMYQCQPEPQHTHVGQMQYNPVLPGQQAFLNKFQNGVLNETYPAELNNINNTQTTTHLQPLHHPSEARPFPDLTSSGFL
Experiment: Western blot of AhR in MCF7 cells
Type: cell-based
Conditions: 10 µM, 5 h
Procedure: Figure S30. Agonists induce degradation of AhR.
12b, 12c, and 12d at a concentration of 10 µM for 5h. The numbers on the Blot indicate the signal intensities of the bands relative to the Tubulin bands, normalized to DMSO treatment as quantified with Empiria Studio. […]
Cell culture and treatment […]
MCF7 cells were purchased from ATCC and grown in DMEM with 10% FCS and 1% penicillin/ streptomycin. […]
All cells were cultivated at 37 °C in a humidified atmosphere containing 5% CO 2.
Tapinarof (MedChemExpress, Monmouth Junction, NJ), benzo[a]pyrene (Sigma-Aldrich, Taufkirchen, Germany), TCDD (Amchro, Hattersheim am Main, Germany) and all compounds synthesized in this study were dissolved in dimethyl sulfoxide (DMSO; Roth). […]
Quantitative real-time PCR […]
• CYP1A1: […] (forward (5'>3')); […] (reverse (5'>3')).
• CYP1B1: […] (forward (5'>3')); […] (reverse (5'>3')).
• CCL26: […] (forward (5'>3')); […] (reverse (5'>3')).
• IL-19: […] (forward (5'>3')); […] (reverse (5'>3')).
• CXCL1: […] (forward (5'>3')); […] (reverse (5'>3')).
• β-actin: […] (forward (5'>3')); […] (reverse (5'>3')). […]
The assay was carried out as described earlier. Luciferase activity was normalized to protein content.
SDS-PAGE/Western blot analysis
Cells were lysed in RIPA buffer on ice and subsequently centrifuged for 15 min at 4 °C at maximum speed. Protein samples were separated by 10% and 12% SDS -polyacrylamide gel electrophoresis and blotted onto PVDF (GE Healthcare, Freiburg, Germany) or Nitrocellulose (BioRad #17 04158) membranes. Blots were blocked with 5% skim milk or bovine serum albumin in TBS -Tween-20 (0.1%) for or Intercept® (TBS) Blocking Buffer (LI -COR Biosciences) 1 h at room temperature and subsequently incubated overnight at 4 °C with primary antibodies. Blots were washed and then incubated for 1 h with a 1:5000 dilution of HRP -conjugated secondary antibodies in 5% bovine serum albumin in TBS -Tween-20 (0.1%) or anti-Mouse (Licor, IRDye® 680RD Goat anti -Mouse IgG, 1:10k dilution) or anti-Rabbit secondary antibody (Licor, IRDye® Goat anti -Rabbit IgG, 1:10k dilution) at room temperature. Bands were visualized using WesternBright ECL HRP substrate (Advansta, San Jose, CA) and a C -DiGit Western Blot Scanner (LI -COR Biotechnology, Lincoln, NE) or a Licor Odyssey CLx imager. Primary antibodies used in this study are as follows. AhR (Cat.No. 83200; Cell Signaling Technology, Leiden, The Netherlands). AIP (Cat.No. sc-59730; Santa Cruz Biotechnology, Dallas, TX). Cul4B (Cat.No. abx004735; Abbexa, Houston, TX). GAPDH (Cat.No. 2118; Cell Signaling Technology). Vinculin (Cat.No. 13901, Cell Signaling Technology). α - Tubulin (Abcam, ab7291, 1:10k dilution).
HaCaT-EV and HaCaT-shAhR cells were treated with either vehicle (DMSO) or 10 µM 12d for 0.5 h and 1 h. […]

## Cc1[nH]c2ccccc2c1-c1c2[nH]c3ccccc3c2cc2[nH]c3ccccc3c12 [5e]
  AhR receptor proteolysis: induced receptor proteolysis

Source: publication PMC12022909, “A Multicomponent Reaction-Based Platform Opens New Avenues in Aryl Hydrocarbon Receptor Modulation” (ACS Central Science, 2025)
